In ChEMBL document CHEMBL5465560, “Selectivity Literature for EUbOPEN Chemogenomic Library” (2024):

Tests used:
[1] = target: T1, NUAK family SNF1-like kinase 2 (Homo sapiens) (UniProt Q9H093); experiment: Selectivity interaction (KinomeScan (DiscoverX)) EUB0000595a NUAK2; details: at 10 µM
T1 sequence (whole entry): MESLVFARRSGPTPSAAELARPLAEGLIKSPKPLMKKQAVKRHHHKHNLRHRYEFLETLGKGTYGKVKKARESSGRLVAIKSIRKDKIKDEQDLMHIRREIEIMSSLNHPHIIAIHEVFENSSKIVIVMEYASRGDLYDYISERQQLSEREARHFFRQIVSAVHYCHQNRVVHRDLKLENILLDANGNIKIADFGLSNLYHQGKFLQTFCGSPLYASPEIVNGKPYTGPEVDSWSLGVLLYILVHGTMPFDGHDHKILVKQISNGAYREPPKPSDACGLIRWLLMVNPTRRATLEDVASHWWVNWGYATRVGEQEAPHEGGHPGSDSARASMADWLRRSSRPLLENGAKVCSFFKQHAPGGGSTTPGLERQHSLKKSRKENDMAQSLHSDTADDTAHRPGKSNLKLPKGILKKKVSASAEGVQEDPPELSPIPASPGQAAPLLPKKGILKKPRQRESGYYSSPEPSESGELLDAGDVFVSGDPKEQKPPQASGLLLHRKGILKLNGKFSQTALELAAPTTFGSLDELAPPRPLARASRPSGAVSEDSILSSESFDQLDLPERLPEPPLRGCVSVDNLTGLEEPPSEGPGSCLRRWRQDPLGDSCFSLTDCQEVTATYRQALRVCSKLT

[2] = target: Serine/threonine-protein kinase OSR1 (Homo sapiens) (UniProt O95747); experiment: Selectivity interaction (KinomeScan (DiscoverX)) EUB0000695a OXSR1; details: at 100 nM
Sequence of Serine/threonine-protein kinase OSR1 (Homo sapiens) (O95747 2-527 limits assumed): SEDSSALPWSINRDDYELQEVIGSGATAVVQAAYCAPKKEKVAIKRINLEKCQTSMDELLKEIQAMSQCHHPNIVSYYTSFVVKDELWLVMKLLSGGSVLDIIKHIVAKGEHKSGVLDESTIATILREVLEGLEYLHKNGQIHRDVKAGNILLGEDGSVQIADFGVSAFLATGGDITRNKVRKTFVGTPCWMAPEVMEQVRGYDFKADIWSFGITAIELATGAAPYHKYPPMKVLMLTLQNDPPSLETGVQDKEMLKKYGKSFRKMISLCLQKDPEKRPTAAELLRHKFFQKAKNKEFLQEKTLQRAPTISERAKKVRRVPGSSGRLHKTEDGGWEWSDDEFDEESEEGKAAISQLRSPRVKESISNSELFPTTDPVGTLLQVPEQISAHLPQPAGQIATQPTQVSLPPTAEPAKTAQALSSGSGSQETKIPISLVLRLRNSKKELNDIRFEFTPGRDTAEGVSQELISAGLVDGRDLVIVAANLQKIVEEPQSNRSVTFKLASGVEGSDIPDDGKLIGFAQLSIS

[3] = target: T2, Myosin light chain kinase family member 4 (Homo sapiens) (UniProt Q86YV6); experiment: Selectivity interaction (KinomeScan (DiscoverX)) EUB0001079a MYLK4; details: at 1 µM
T2 sequence (whole entry): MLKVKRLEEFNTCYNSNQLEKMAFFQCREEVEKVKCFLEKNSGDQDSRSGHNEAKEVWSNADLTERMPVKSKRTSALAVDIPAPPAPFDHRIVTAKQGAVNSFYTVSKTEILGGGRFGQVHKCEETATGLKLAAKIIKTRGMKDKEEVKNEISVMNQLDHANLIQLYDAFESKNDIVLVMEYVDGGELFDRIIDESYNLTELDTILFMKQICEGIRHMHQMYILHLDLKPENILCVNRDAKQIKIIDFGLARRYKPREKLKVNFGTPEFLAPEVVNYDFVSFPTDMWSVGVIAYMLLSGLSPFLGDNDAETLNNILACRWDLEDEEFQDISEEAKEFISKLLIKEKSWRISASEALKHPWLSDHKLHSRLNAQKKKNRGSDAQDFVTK

[4] = target: T3, Membrane-associated tyrosine- and threonine-specific cdc2-inhibitory kinase (Homo sapiens) (UniProt Q99640); experiment: Selectivity interaction (LanthaScreen Eu Kinase Binding Assay) EUB0001632a PKMYT1; details: at 10 µM
T3 sequence (whole entry): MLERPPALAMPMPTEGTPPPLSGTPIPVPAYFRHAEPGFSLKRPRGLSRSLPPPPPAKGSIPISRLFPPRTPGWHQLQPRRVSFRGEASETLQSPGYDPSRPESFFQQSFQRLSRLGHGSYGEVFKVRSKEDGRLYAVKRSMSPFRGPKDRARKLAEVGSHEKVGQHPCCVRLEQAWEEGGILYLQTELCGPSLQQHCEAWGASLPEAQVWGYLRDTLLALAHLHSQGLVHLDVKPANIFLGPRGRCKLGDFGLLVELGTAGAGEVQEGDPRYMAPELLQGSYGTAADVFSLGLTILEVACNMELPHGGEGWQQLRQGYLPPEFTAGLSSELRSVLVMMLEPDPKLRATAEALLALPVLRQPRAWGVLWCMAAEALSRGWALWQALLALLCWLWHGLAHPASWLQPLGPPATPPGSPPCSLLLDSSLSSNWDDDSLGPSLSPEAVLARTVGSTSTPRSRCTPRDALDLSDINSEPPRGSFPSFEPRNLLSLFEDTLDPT

[5] = Selectivity interaction (KinomeScan (DiscoverX)) EUB0001049a CDPK1; details: at 1 µM
[6] = target: T4, Mitogen-activated protein kinase kinase kinase kinase 2 (Homo sapiens) (UniProt Q12851); experiment: Selectivity interaction (Kinase panel (literature)) EUB0001199aCl MAP4K2; details: at 1 µM
T4 sequence (whole entry): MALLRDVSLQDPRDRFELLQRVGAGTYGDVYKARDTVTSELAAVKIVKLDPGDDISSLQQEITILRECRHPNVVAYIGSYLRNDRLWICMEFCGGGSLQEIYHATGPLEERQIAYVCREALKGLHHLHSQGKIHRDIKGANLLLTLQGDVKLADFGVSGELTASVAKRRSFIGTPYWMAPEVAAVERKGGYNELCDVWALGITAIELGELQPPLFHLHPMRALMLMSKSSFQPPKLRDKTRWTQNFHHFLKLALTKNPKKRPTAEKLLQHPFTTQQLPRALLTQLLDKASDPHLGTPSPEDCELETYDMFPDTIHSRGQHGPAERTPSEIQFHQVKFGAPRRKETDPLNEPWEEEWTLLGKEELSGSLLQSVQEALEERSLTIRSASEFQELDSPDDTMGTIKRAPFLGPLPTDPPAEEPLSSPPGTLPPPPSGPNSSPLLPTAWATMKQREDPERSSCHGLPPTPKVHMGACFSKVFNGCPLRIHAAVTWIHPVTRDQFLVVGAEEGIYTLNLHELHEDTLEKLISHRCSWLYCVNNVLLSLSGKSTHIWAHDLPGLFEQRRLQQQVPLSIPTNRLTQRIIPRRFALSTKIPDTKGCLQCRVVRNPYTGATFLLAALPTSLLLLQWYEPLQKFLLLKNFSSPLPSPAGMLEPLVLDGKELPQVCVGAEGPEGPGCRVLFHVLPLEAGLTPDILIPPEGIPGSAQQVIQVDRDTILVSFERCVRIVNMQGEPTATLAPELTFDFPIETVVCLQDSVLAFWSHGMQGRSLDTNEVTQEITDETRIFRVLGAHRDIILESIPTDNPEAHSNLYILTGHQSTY

[7] = target: Casein kinase I isoform epsilon (Homo sapiens, UniProt P49674); experiment: Selectivity interaction (SelectScreen profiling (Invitrogen)) EUB0000607a CSNK1E; details: at 2 µM
Sequence of Casein kinase I isoform epsilon (P49674 whole entry, looked up, canonical isoform): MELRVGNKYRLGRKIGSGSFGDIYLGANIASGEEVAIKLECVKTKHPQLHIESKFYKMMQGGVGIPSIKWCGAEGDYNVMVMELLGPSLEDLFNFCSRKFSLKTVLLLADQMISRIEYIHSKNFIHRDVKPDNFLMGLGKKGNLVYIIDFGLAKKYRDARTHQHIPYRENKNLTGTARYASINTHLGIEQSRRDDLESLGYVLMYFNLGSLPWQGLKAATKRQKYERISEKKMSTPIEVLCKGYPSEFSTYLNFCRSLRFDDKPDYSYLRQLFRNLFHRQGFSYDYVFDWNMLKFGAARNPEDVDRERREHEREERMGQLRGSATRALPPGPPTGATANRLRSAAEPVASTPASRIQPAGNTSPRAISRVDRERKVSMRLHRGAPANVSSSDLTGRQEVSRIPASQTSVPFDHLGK

[8] = target: Fibroblast growth factor receptor 4 (Homo sapiens, UniProt P22455); experiment: Selectivity interaction (Kinase panel (Invitrogen)) EUB0000639a FGFR4; details: at 200 nM
Sequence of Fibroblast growth factor receptor 4 (P22455 22-802 limits assumed): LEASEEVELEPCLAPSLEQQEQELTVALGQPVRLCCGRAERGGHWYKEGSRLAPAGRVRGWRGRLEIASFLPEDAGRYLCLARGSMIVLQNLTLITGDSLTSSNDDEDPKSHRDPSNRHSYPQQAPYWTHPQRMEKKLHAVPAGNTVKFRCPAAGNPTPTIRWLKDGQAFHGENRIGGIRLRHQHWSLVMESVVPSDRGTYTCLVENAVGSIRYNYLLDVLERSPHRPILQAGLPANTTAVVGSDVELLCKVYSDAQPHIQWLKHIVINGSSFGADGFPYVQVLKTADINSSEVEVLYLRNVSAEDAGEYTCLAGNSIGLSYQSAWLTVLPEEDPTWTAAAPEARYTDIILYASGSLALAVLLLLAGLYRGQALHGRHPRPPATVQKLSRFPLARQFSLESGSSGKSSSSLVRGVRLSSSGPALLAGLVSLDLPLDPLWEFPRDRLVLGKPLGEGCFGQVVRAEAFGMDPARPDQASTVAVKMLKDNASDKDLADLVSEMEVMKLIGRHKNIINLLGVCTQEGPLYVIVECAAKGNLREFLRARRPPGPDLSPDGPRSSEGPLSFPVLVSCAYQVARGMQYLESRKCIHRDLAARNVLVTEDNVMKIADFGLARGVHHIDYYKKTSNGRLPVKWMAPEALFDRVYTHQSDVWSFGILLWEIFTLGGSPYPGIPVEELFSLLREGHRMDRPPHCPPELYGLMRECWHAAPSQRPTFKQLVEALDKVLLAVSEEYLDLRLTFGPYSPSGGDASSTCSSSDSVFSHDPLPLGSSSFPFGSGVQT

[9] = target: Serine/threonine-protein kinase 32C (Homo sapiens) (UniProt Q86UX6); experiment: Selectivity interaction (KinomeScan (DiscoverX)) EUB0000655a STK32C; details: at 10 µM
Sequence of Serine/threonine-protein kinase 32C (Homo sapiens) (Q86UX6 whole entry): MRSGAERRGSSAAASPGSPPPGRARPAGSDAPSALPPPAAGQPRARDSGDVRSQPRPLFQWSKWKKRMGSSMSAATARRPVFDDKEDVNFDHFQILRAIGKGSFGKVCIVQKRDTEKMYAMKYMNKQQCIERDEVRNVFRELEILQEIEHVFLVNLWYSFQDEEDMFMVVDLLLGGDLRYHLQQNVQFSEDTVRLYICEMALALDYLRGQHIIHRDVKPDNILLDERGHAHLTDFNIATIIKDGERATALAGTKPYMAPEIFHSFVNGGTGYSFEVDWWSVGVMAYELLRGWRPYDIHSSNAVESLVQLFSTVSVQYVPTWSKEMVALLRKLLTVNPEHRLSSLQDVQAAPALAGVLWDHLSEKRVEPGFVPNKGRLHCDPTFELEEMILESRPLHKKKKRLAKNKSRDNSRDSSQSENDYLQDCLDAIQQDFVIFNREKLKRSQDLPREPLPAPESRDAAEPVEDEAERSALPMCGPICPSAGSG

[10] = target: Serine/threonine-protein kinase Chk2 (Homo sapiens) (UniProt O96017); experiment: Selectivity interaction (KinomeScan (DiscoverX)) EUB0000655a CHEK2; details: at 10 µM
Sequence of Serine/threonine-protein kinase Chk2 (Homo sapiens) (O96017 whole entry): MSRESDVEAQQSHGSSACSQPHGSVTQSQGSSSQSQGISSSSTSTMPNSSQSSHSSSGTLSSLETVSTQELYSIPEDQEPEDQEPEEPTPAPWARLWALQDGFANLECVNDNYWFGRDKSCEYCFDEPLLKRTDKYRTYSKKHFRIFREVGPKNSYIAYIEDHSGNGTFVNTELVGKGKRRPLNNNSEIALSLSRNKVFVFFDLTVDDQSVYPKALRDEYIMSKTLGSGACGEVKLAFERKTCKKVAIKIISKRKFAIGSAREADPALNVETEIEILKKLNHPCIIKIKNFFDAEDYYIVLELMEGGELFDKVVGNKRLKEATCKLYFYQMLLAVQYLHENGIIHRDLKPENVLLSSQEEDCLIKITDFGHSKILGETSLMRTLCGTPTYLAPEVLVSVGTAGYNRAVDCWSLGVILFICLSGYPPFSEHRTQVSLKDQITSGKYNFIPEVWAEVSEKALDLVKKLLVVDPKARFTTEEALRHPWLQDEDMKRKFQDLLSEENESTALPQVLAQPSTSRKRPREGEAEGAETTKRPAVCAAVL

[11] = target: Serine/threonine-protein kinase Nek4 (Homo sapiens) (UniProt P51957); experiment: Selectivity interaction (KinomeScan (DiscoverX)) EUB0000092b NEK4; details: at 10 µM
Sequence of Serine/threonine-protein kinase Nek4 (Homo sapiens) (P51957 whole entry, looked up): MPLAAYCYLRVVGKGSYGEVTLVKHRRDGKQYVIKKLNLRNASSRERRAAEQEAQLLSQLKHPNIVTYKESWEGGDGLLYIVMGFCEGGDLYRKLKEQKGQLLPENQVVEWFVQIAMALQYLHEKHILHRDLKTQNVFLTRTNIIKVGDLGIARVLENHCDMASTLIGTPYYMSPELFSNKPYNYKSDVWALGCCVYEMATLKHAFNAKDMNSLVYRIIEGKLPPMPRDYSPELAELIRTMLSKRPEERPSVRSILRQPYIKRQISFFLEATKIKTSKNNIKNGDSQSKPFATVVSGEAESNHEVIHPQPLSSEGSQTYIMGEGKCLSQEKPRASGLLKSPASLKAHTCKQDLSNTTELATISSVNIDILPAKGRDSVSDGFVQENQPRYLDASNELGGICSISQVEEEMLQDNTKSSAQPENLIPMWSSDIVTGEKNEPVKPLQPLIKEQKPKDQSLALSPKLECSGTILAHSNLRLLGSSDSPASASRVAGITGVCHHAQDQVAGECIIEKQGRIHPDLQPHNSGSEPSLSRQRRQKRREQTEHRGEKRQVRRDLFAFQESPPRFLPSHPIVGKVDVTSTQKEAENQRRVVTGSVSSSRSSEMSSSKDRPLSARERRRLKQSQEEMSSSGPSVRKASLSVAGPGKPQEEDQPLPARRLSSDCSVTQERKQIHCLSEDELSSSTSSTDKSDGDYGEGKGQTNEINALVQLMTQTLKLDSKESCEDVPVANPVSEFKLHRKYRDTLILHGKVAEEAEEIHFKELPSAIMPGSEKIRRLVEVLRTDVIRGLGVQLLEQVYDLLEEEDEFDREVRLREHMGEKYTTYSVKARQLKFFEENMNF

## COCC(=O)NC/C=C/c1ccc2ncnc(Nc3ccc(Oc4ccc(C)nc4)c(C)c3)c2c1 [CP-724714]
[1]
  % of control: 100%

## Cc1cc(F)c(C(=O)Nc2cccc(-c3nncn3C(C)C)n2)cc1-n1cnc(C2CC2)c1
[2]
  % of control: 86%

## Nc1cnc(N2CCc3cc(S(=O)(=O)Nc4c(F)cc(Cl)cc4F)cc(N4CCCC4=O)c32)nc1 [TP-020n]
[3]
  % of control: 100%

## Cn1cc(-n2cnc3c(NCc4nc5cc(Cl)c(Cl)cc5[nH]4)nc(N4CCOCC4)nc32)cn1
[4]
  % of inhibition: -3.65%

## COc1cc(Nc2nc(C)cc(-c3cnn4nc(OC)ccc34)n2)cc(C(F)(F)F)c1
[5]
  % of control: 74%

## CN1Cc2nccc(-c3cn(C)nc3-c3ccc(F)cc3)c2C1=O
[6]
  % of inhibition: 4%

## CNC(=O)Nc1ccc(-c2nc(N3CC4CCC(C3)O4)c3cnn(C4CCC5(CC4)OCCO5)c3n2)cc1
[7]
  % of inhibition: 4%

## CC[C@@H]1[C@H](F)C(=O)N[C@@H]1COc1nccc2cc(C(N)=O)c(OC)cc12 [ZIMLOVISERTIB]
[8]
  % of inhibition: 3.68%

## CN(C)CCOc1ccc(-c2nc(-c3ccncc3)c(-c3ccc4c(c3)CC/C4=N\O)[nH]2)cc1
[9]
  % of control: 100%
[10]
  % of control: 100%

## CCC(=O)N1CCN(c2ccc(-n3c(=O)ccc4cnc5ccc(-c6cnc7ccccc7c6)cc5c43)cc2C(F)(F)F)CC1
[11]
  % of control: 86%
